From PubChem BioAssay (NCI)
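Cultured in 96-well plates, cells were exposed to test compound for 48 hours across five concentrations. TGI: concentration producing complete growth inhibition.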

Assays:
Test in all cases: NCI tumour cell line growth inhibition, 48 h
HOP-62 NSCLC = system: HOP-62 NSCLC
RPMI-8226 leukemia = system: RPMI-8226 leukemia
OVCAR-5 ovarian = system: OVCAR-5 ovarian
NCI-H226 lung = system: NCI-H226 lung
HCT-116 colon = system: HCT-116 colon
ACHN renal = system: ACHN renal
KM12 colon = system: KM12 colon
HCC-2998 colon = system: HCC-2998 colon
MOLT-4 leukemia = system: MOLT-4 leukemia
K-562 leukemia = system: K-562 leukemia
UO-31 renal = system: UO-31 renal
RXF 393 renal = system: RXF 393 renal
SK-OV-3 ovarian = system: SK-OV-3 ovarian
UACC-257 melanoma = system: UACC-257 melanoma
EKVX NSCLC = system: EKVX NSCLC
U251 CNS = system: U251 CNS
MCF7 breast = system: MCF7 breast
TK-10 renal = system: TK-10 renal
OVCAR-3 ovarian = system: OVCAR-3 ovarian
COLO 205 colon = system: COLO 205 colon
MDA-MB-435 = system: MDA-MB-435
SK-MEL-5 melanoma = system: SK-MEL-5 melanoma
LOX IMVI melanoma = system: LOX IMVI melanoma
SNB-75 CNS = system: SNB-75 CNS
MDA-MB-231 breast = system: MDA-MB-231 breast
NCI-H522 lung = system: NCI-H522 lung
SK-MEL-2 melanoma = system: SK-MEL-2 melanoma
NCI-H460 lung = system: NCI-H460 lung
CCRF-CEM leukemia = system: CCRF-CEM leukemia
NCI/ADR-RES ovarian = system: NCI/ADR-RES ovarian
SN12C renal = system: SN12C renal
OVCAR-4 ovarian = system: OVCAR-4 ovarian
SNB-19 CNS = system: SNB-19 CNS
786-0 renal = system: 786-0 renal
MDA-N = system: MDA-N
HT29 colon = system: HT29 colon
NCI-H23 lung = system: NCI-H23 lung
M14 melanoma = system: M14 melanoma
IGROV1 ovarian = system: IGROV1 ovarian
HCT-15 colon = system: HCT-15 colon
DU-145 prostate = system: DU-145 prostate
SW-620 colon = system: SW-620 colon
A549 NSCLC = system: A549 NSCLC
UACC-62 melanoma = system: UACC-62 melanoma
SF-539 CNS = system: SF-539 CNS
PC-3 prostate = system: PC-3 prostate
A498 renal = system: A498 renal
SF-268 CNS = system: SF-268 CNS
T-47D breast = system: T-47D breast
HS 578T breast = system: HS 578T breast
SK-MEL-28 melanoma = system: SK-MEL-28 melanoma
HL-60(TB) leukemia = system: HL-60(TB) leukemia
OVCAR-8 ovarian = system: OVCAR-8 ovarian
SF-295 CNS = system: SF-295 CNS
HOP-92 NSCLC = system: HOP-92 NSCLC
SR leukemia = system: SR leukemia
MALME-3M melanoma = system: MALME-3M melanoma
CAKI-1 renal = system: CAKI-1 renal

Molecule `CN1N=C(c2ccncc2)OC1c1ccc(Cl)cc1Cl` (stereo not drawn) has a TGI (HOP-62 NSCLC) greater than 100 µM, a TGI (RPMI-8226 leukemia) greater than 100 µM and a TGI (OVCAR-5 ovarian) greater than 100 µM. It also gave a TGI (NCI-H226 lung) of 84.2 µM, a TGI (HCT-116 colon) greater than 100 µM and a TGI (ACHN renal) greater than 100 µM. The TGI (KM12 colon) was greater than 100 µM, the TGI (HCC-2998 colon) was greater than 100 µM and the TGI (MOLT-4 leukemia) was greater than 100 µM. For the same molecule, the TGI (K-562 leukemia) was greater than 100 µM, the TGI (UO-31 renal) was greater than 100 µM and the TGI (RXF 393 renal) was greater than 100 µM. For the same molecule, the TGI (SK-OV-3 ovarian) was greater than 100 µM, the TGI (UACC-257 melanoma) was greater than 100 µM and the TGI (EKVX NSCLC) was greater than 100 µM. The TGI (U251 CNS) was greater than 100 µM, the TGI (MCF7 breast) was greater than 100 µM and the TGI (TK-10 renal) was greater than 100 µM. For the same molecule, the TGI (OVCAR-3 ovarian) was greater than 100 µM, the TGI (COLO 205 colon) was greater than 100 µM and the TGI (MDA-MB-435) was greater than 100 µM. For the same molecule, the TGI (SK-MEL-5 melanoma) was greater than 100 µM, the TGI (LOX IMVI melanoma) was greater than 100 µM and the TGI (SNB-75 CNS) was 55.6 µM. The TGI (MDA-MB-231 breast) was greater than 100 µM, the TGI (NCI-H522 lung) was greater than 100 µM and the TGI (SK-MEL-2 melanoma) was greater than 100 µM. For the same molecule, the TGI (NCI-H460 lung) was greater than 100 µM, the TGI (CCRF-CEM leukemia) was greater than 100 µM and the TGI (NCI/ADR-RES ovarian) was greater than 100 µM. It also gave a TGI (SN12C renal) greater than 100 µM, a TGI (OVCAR-4 ovarian) greater than 100 µM and a TGI (SNB-19 CNS) greater than 100 µM. The TGI (786-0 renal) was greater than 100 µM, the TGI (MDA-N) was greater than 100 µM and the TGI (HT29 colon) was greater than 100 µM. The TGI (NCI-H23 lung) was greater than 100 µM, the TGI (M14 melanoma) was greater than 100 µM and the TGI (IGROV1 ovarian) was greater than 100 µM. It also gave a TGI (HCT-15 colon) greater than 100 µM, a TGI (DU-145 prostate) greater than 100 µM and a TGI (SW-620 colon) greater than 100 µM. For the same molecule, the TGI (A549 NSCLC) was greater than 100 µM, the TGI (UACC-62 melanoma) was 76.5 µM and the TGI (SF-539 CNS) was greater than 100 µM. For the same molecule, the TGI (PC-3 prostate) was greater than 100 µM, the TGI (A498 renal) was greater than 100 µM and the TGI (SF-268 CNS) was greater than 100 µM. For the same molecule, the TGI (T-47D breast) was greater than 100 µM, the TGI (HS 578T breast) was greater than 100 µM and the TGI (SK-MEL-28 melanoma) was greater than 100 µM. It also gave a TGI (HL-60(TB) leukemia) greater than 100 µM, a TGI (OVCAR-8 ovarian) greater than 100 µM and a TGI (SF-295 CNS) greater than 100 µM.
`Cc1ccc(S(=O)(=O)N2CCCN(S(=O)(=O)c3ccc(C)cc3)CC2)cc1` was tested, and the TGI (HOP-92 NSCLC) was greater than 100 µM, the TGI (NCI-H226 lung) was greater than 100 µM and the TGI (HCT-116 colon) was greater than 100 µM. The TGI (ACHN renal) was greater than 100 µM, the TGI (KM12 colon) was greater than 100 µM and the TGI (HCC-2998 colon) was greater than 100 µM. It also gave a TGI (SR leukemia) greater than 100 µM, a TGI (MOLT-4 leukemia) greater than 100 µM and a TGI (K-562 leukemia) greater than 100 µM. It also gave a TGI (UO-31 renal) greater than 100 µM, a TGI (RXF 393 renal) greater than 100 µM and a TGI (UACC-257 melanoma) greater than 100 µM. It also gave a TGI (U251 CNS) greater than 100 µM, a TGI (MCF7 breast) greater than 100 µM and a TGI (TK-10 renal) greater than 100 µM. For the same molecule, the TGI (OVCAR-3 ovarian) was greater than 100 µM, the TGI (COLO 205 colon) was greater than 100 µM and the TGI (MDA-MB-435) was greater than 100 µM. For the same molecule, the TGI (SK-MEL-5 melanoma) was greater than 100 µM, the TGI (SNB-75 CNS) was greater than 100 µM and the TGI (MDA-MB-231 breast) was greater than 100 µM. For the same molecule, the TGI (NCI-H522 lung) was greater than 100 µM, the TGI (NCI-H460 lung) was greater than 100 µM and the TGI (CCRF-CEM leukemia) was greater than 100 µM. It also gave a TGI (NCI/ADR-RES ovarian) greater than 100 µM, a TGI (SN12C renal) greater than 100 µM and a TGI (OVCAR-4 ovarian) greater than 100 µM. The TGI (SNB-19 CNS) was greater than 100 µM, the TGI (MDA-N) was greater than 100 µM and the TGI (HT29 colon) was greater than 100 µM. It also gave a TGI (NCI-H23 lung) greater than 100 µM, a TGI (M14 melanoma) greater than 100 µM and a TGI (HCT-15 colon) greater than 100 µM. It also gave a TGI (DU-145 prostate) greater than 100 µM, a TGI (SW-620 colon) greater than 100 µM and a TGI (PC-3 prostate) greater than 100 µM. The TGI (A498 renal) was 69.2 µM, the TGI (SF-268 CNS) was greater than 100 µM and the TGI (T-47D breast) was greater than 100 µM. It also gave a TGI (HS 578T breast) greater than 100 µM, a TGI (SK-MEL-28 melanoma) greater than 100 µM and a TGI (OVCAR-8 ovarian) greater than 100 µM. For the same molecule, the TGI (SF-295 CNS) was greater than 100 µM.
Molecule `c1ccc(C[n+]2ccc3c(c2)CCCC3)cc1` has a TGI (HOP-62 NSCLC) greater than 100 µM, a TGI (HOP-92 NSCLC) greater than 100 µM and a TGI (RPMI-8226 leukemia) greater than 100 µM. The TGI (OVCAR-5 ovarian) was greater than 100 µM, the TGI (NCI-H226 lung) was greater than 100 µM and the TGI (HCT-116 colon) was greater than 100 µM. It also gave a TGI (ACHN renal) greater than 100 µM, a TGI (KM12 colon) greater than 100 µM and a TGI (HCC-2998 colon) greater than 100 µM. For the same molecule, the TGI (SR leukemia) was greater than 100 µM, the TGI (MOLT-4 leukemia) was greater than 100 µM and the TGI (K-562 leukemia) was greater than 100 µM. For the same molecule, the TGI (UO-31 renal) was greater than 100 µM, the TGI (RXF 393 renal) was greater than 100 µM and the TGI (SK-OV-3 ovarian) was greater than 100 µM. It also gave a TGI (UACC-257 melanoma) greater than 100 µM, a TGI (EKVX NSCLC) of 85.8 µM and a TGI (U251 CNS) greater than 100 µM. For the same molecule, the TGI (MCF7 breast) was greater than 100 µM, the TGI (MALME-3M melanoma) was greater than 100 µM and the TGI (TK-10 renal) was greater than 100 µM. It also gave a TGI (OVCAR-3 ovarian) greater than 100 µM, a TGI (COLO 205 colon) greater than 100 µM and a TGI (MDA-MB-435) greater than 100 µM. It also gave a TGI (SK-MEL-5 melanoma) greater than 100 µM, a TGI (LOX IMVI melanoma) greater than 100 µM and a TGI (SNB-75 CNS) greater than 100 µM. It also gave a TGI (MDA-MB-231 breast) greater than 100 µM, a TGI (SK-MEL-2 melanoma) greater than 100 µM and a TGI (NCI-H460 lung) greater than 100 µM. For the same molecule, the TGI (CCRF-CEM leukemia) was greater than 100 µM, the TGI (NCI/ADR-RES ovarian) was greater than 100 µM and the TGI (SN12C renal) was greater than 100 µM. For the same molecule, the TGI (OVCAR-4 ovarian) was greater than 100 µM, the TGI (SNB-19 CNS) was greater than 100 µM and the TGI (786-0 renal) was greater than 100 µM. For the same molecule, the TGI (CAKI-1 renal) was greater than 100 µM, the TGI (MDA-N) was greater than 100 µM and the TGI (HT29 colon) was greater than 100 µM. It also gave a TGI (NCI-H23 lung) greater than 100 µM, a TGI (M14 melanoma) greater than 100 µM and a TGI (IGROV1 ovarian) greater than 100 µM. The TGI (HCT-15 colon) was greater than 100 µM, the TGI (DU-145 prostate) was greater than 100 µM and the TGI (SW-620 colon) was greater than 100 µM. For the same molecule, the TGI (A549 NSCLC) was greater than 100 µM, the TGI (UACC-62 melanoma) was greater than 100 µM and the TGI (SF-539 CNS) was greater than 100 µM. It also gave a TGI (PC-3 prostate) greater than 100 µM, a TGI (SF-268 CNS) greater than 100 µM and a TGI (T-47D breast) greater than 100 µM. It also gave a TGI (HS 578T breast) greater than 100 µM, a TGI (SK-MEL-28 melanoma) greater than 100 µM and a TGI (HL-60(TB) leukemia) greater than 100 µM. For the same molecule, the TGI (OVCAR-8 ovarian) was greater than 100 µM and the TGI (SF-295 CNS) was greater than 100 µM.
